Experimental data as given in patent US7297700B2, “Bicycloheteroaryl compounds as P2X7 modulators and uses thereof” (Renovis, Inc., priority 2005, dated 2007).

These compounds were tested on IL-1β release from THP-1 cells (assay: IL-1β Release Assay (Alternate Method), THP-1 cells). Conditions: at 0.3 μM; THP-1 cells.
Assay type: cell-based, human
Experimental: THP-1 cells (ATCC Cat #285-IF-100) are plated in 96 well plates at a concentration of 200,000 cells per well and allowed to differentiate in RPMI-1640 media (ATCC Cat #30-2001) containing 10% FBS, 100 IU/mL penicillin, 100 ug/mL streptomycin, 100 ng/mL LPS and 100 ng/mL IFN-γ for 16 hours. Following differentiation, the cells are treated for an additional 2 hours in RPMI-1640 media containing 100 IU/mL penicillin, 100 ug/mL streptomycin and fresh LPS at 100 ng/mL. The cells are then pretreated for 30 minutes with the compound of interest at the appropriate concentration in RPMI media containing 100 IU/mL penicillin, 100 ug/mL streptomycin. Following the pretreatment 2′, 3′-O-(4-benzoylbenzoyl)-adenosine 5′-triphosphate (Sigma Aldrich Cat#B6396) is added to a final concentration of 250 uM and the cells incubated for an additional 45 minutes. 30 uL of cell supernatant is then collected and IL-1β levels determined via ELISA (R&D systems Cat. #HSLB50) according to manufacturer's recommendations using the Tecan Safire plate reader. Background adjusted IL-1β levels of drug treated and non-treated cells are used to calculate the percent inhibition.

| SMILES | IL-1β % inhibition |
| --- | --- |
| O=C(NCC1CCCCC1)c1ncnc2c1CCN(Cc1cccc(Cl)c1)C2 [Compound 53] | + (compound exhibited 0-25% inhibition at 0.3 μM) |
| COc1ccc(CN2CCc3c(ncnc3C(=O)NCC3CCCCC3)C2)cc1 [Compound 54] | + (compound exhibited 0-25% inhibition at 0.3 μM) |
| Cc1ccc(CN2CCc3c(ncnc3C(=O)NCC3CCCCC3)C2)cc1 [Compound 55] | + (compound exhibited 0-25% inhibition at 0.3 μM) |
| CS(=O)(=O)c1ccc(CN2CCc3c(ncnc3C(=O)NCC3CCCCC3)C2)cc1 [Compound 56] | + (compound exhibited 0-25% inhibition at 0.3 μM) |
| O=C(NCC1(O)CCCCCC1)c1ncnc2c1CCN(Cc1ccccc1)C2 [Compound 58] | + (compound exhibited 0-25% inhibition at 0.3 μM) |
| CC1(C)CCCC(O)(CNC(=O)c2ncnc3c2CCN(Cc2ccccc2)C3)C1 (stereo not shown) [Compound 59] | + (compound exhibited 0-25% inhibition at 0.3 μM) |
| Cc1ccc(C2(CNC(=O)c3ncnc4c3CCN(Cc3ccccc3)C4)CCCCC2)cc1 [Compound 60] | + (compound exhibited 0-25% inhibition at 0.3 μM) |
| O=C(CC12CC3CC(CC(C3)C1)C2)Nc1ncnc2c1CCN(Cc1ccccn1)C2 [Compound 61] | + (compound exhibited 0-25% inhibition at 0.3 μM) |
| CC(=O)Nc1ccc(CN2CCc3c(ncnc3NC(=O)CC34CC5CC(CC(C5)C3)C4)C2)cc1 [Compound 62] | +++ (compound exhibited 50-75% inhibition at 0.3 μM) |
| O=C(CC12CC3CC(CC(C3)C1)C2)Nc1ncnc2c1CCN(CCCc1ccccc1)C2 [Compound 63] | + (compound exhibited 0-25% inhibition at 0.3 μM) |
| O=C(CC12CC3CC(CC(C3)C1)C2)Nc1ncnc2c1CCN(Cc1ccc3[nH]ccc3c1)C2 [Compound 64] | + (compound exhibited 0-25% inhibition at 0.3 μM) |
| O=C(CC12CC3CC(CC(C3)C1)C2)Nc1ncnc2c1CCN(Cc1ccc(-c3ccccn3)cc1)C2 [Compound 65] | + (compound exhibited 0-25% inhibition at 0.3 μM) |
| Cc1ccc(CN2CCc3c(ncnc3NC(=O)CC34CC5CC(CC(C5)C3)C4)C2)s1 [Compound 66] | + (compound exhibited 0-25% inhibition at 0.3 μM) |
| Cn1ccnc1CN1CCc2c(ncnc2NC(=O)CC23CC4CC(CC(C4)C2)C3)C1 [Compound 67] | ++ (compound exhibited 25-50% inhibition at 0.3 μM) |
| O=C(CC12CC3CC(CC(C3)C1)C2)Nc1ncnc2c1CCN(Cc1cccc(Oc3ccccc3)c1)C2 [Compound 68] | + (compound exhibited 0-25% inhibition at 0.3 μM) |
| O=C(CC12CC3CC(CC(C3)C1)C2)Nc1ncnc2c1CCN(Cc1ccnc3ccccc13)C2 [Compound 69] | + (compound exhibited 0-25% inhibition at 0.3 μM) |
| O=C(CC12CC3CC(CC(C3)C1)C2)Nc1ncnc2c1CCN(Cc1cccc(C(F)(F)F)c1)C2 [Compound 70] | + (compound exhibited 0-25% inhibition at 0.3 μM) |
| CC(C)(C)c1ccc(CN2CCc3c(ncnc3NC(=O)CC34CC5CC(CC(C5)C3)C4)C2)cc1 [Compound 71] | + (compound exhibited 0-25% inhibition at 0.3 μM) |
| O=C(CC12CC3CC(CC(C3)C1)C2)Nc1ncnc2c1CCN(Cc1ccc(C(F)(F)F)cc1)C2 [Compound 72] | + (compound exhibited 0-25% inhibition at 0.3 μM) |
| O=C(CC12CC3CC(CC(C3)C1)C2)Nc1ncnc2c1CCN(Cc1ccc3ccccc3n1)C2 [Compound 73] | + (compound exhibited 0-25% inhibition at 0.3 μM) |
| O=C(CC12CC3CC(CC(C3)C1)C2)Nc1ncnc2c1CCN(Cc1ccc(OC(F)(F)F)cc1)C2 [Compound 74] | + (compound exhibited 0-25% inhibition at 0.3 μM) |
| O=C(CC12CC3CC(CC(C3)C1)C2)Nc1ncnc2c1CCN(Cc1ccc(Oc3ccccc3)cc1)C2 [Compound 75] | + (compound exhibited 0-25% inhibition at 0.3 μM) |
| O=C(CC12CC3CC(CC(C3)C1)C2)Nc1ncnc2c1CCN(Cc1ccccc1OC(F)(F)F)C2 [Compound 76] | + (compound exhibited 0-25% inhibition at 0.3 μM) |
| O=C(CC12CC3CC(CC(C3)C1)C2)Nc1ncnc2c1CCN(Cc1ccccc1OC(F)F)C2 [Compound 77] | + (compound exhibited 0-25% inhibition at 0.3 μM) |
| O=C(CC12CC3CC(CC(C3)C1)C2)Nc1ncnc2c1CCN(Cc1ccc(OC(F)F)cc1)C2 [Compound 78] | + (compound exhibited 0-25% inhibition at 0.3 μM) |
| O=C(CC12CC3CC(CC(C3)C1)C2)Nc1ncnc2c1CCN(Cc1ccc(-c3ccccc3)s1)C2 [Compound 79] | + (compound exhibited 0-25% inhibition at 0.3 μM) |

| SMILES | IL-1β % inhibition |
| --- | --- |
| CCCCc1nc(CN2CCc3c(ncnc3NC(=O)CC34CC5CC(CC(C5)C3)C4)C2)c[nH]1 [Compound 80] | ++ (compound exhibited 25-50% inhibition at 0.3 μM) |
| Cc1nc[nH]c1CN1CCc2c(ncnc2NC(=O)CC23CC4CC(CC(C4)C2)C3)C1 [Compound 81] | +++ (compound exhibited 50-75% inhibition at 0.3 μM) |
| O=C(CC12CC3CC(CC(C3)C1)C2)Nc1ncnc2c1CCN(Cc1c[nH]cn1)C2 [Compound 82] | +++ (compound exhibited 50-75% inhibition at 0.3 μM) |
| O=C(CC12CC3CC(CC(C3)C1)C2)Nc1ncnc2c1CCN(Cc1ccc(Cl)s1)C2 [Compound 83] | ++++ (compound exhibited 75% or greater inhibition at 0.3 μM) |
| N#Cc1cc(CN2CCc3c(ncnc3NC(=O)CC34CC5CC(CC(C5)C3)C4)C2)ccc1F [Compound 84] | + (compound exhibited 0-25% inhibition at 0.3 μM) |
| Cc1ccc(CN2CCc3c(ncnc3NC(=O)CC34CC5CC(CC(C5)C3)C4)C2)cc1F [Compound 85] | + (compound exhibited 0-25% inhibition at 0.3 μM) |
| Cc1cc(CN2CCc3c(ncnc3NC(=O)CC34CC5CC(CC(C5)C3)C4)C2)ccc1F [Compound 86] | ++ (compound exhibited 25-50% inhibition at 0.3 μM) |
| Cc1ccc(Cl)c(CN2CCc3c(ncnc3NC(=O)CC34CC5CC(CC(C5)C3)C4)C2)c1F [Compound 87] | ++ (compound exhibited 25-50% inhibition at 0.3 μM) |
| Cc1ccc(F)c(CN2CCc3c(ncnc3NC(=O)CC34CC5CC(CC(C5)C3)C4)C2)c1Cl [Compound 88] | +++ (compound exhibited 50-75% inhibition at 0.3 μM) |
| CN(CCO)c1ccc(CN2CCc3c(ncnc3NC(=O)CC34CC5CC(CC(C5)C3)C4)C2)cc1 [Compound 89] | + (compound exhibited 0-25% inhibition at 0.3 μM) |
| O=C(CC12CC3CC(CC(C3)C1)C2)Nc1ncnc2c1CCN(Cc1cccc3c1OC(F)(F)O3)C2 [Compound 90] | + (compound exhibited 0-25% inhibition at 0.3 μM) |
| NC(=O)COc1ccc(CN2CCc3c(ncnc3NC(=O)CC34CC5CC(CC(C5)C3)C4)C2)cc1 [Compound 91] | + (compound exhibited 0-25% inhibition at 0.3 μM) |
| O=C(CC1CCCCCC1)Nc1ncnc2c1CCN(Cc1cccnc1)C2 [Compound 93] | + (compound exhibited 0-25% inhibition at 0.3 μM) |
| O=C(CC1CCCCCC1)Nc1ncnc2c1CCN(Cc1ccccn1)C2 [Compound 94] | + (compound exhibited 0-25% inhibition at 0.3 μM) |
| COc1ccc(CN2CCc3c(ncnc3NC(=O)CC34CC5CC(CC(C5)C3)C4)C2)c(F)c1 [Compound 95] | ++++ (compound exhibited 75% or greater inhibition at 0.3 μM) |
| O=C(CC12CC3CC(CC(C3)C1)C2)Nc1ncnc2c1CCN(Cc1cc(F)ccc1C(F)(F)F)C2 [Compound 96] | + (compound exhibited 0-25% inhibition at 0.3 μM) |
| O=C(CC12CC3CC(CC(C3)C1)C2)Nc1ncnc2c1CCN(Cc1ccc(C(F)(F)F)c(F)c1)C2 [Compound 97] | ++ (compound exhibited 25-50% inhibition at 0.3 μM) |
| O=C(CC12CC3CC(CC(C3)C1)C2)Nc1ncnc2c1CCN(Cc1ccc(-n3ccnc3)cc1)C2 [Compound 98] | ++ (compound exhibited 25-50% inhibition at 0.3 μM) |
| O=C(CC12CC3CC(CC(C3)C1)C2)Nc1ncnc2c1CCN(Cc1ccc(OCCO)cc1)C2 [Compound 99] | + (compound exhibited 0-25% inhibition at 0.3 μM) |
| O=C(CC12CC3CC(CC(C3)C1)C2)Nc1ncnc2c1CCN(Cc1ccccc1OCCO)C2 [Compound 100] | ++ (compound exhibited 25-50% inhibition at 0.3 μM) |
| O=C(CC12CC3CC(CC(C3)C1)C2)Nc1ncnc2c1CCN(Cc1cccc(OCCO)c1)C2 [Compound 101] | ++ (compound exhibited 25-50% inhibition at 0.3 μM) |
| COc1ccc(F)cc1CN1CCc2c(ncnc2NC(=O)CC23CC4CC(CC(C4)C2)C3)C1 [Compound 102] | + (compound exhibited 0-25% inhibition at 0.3 μM) |
| COc1cc(CN2CCc3c(ncnc3NC(=O)CC34CC5CC(CC(C5)C3)C4)C2)ccc1F [Compound 103] | + (compound exhibited 0-25% inhibition at 0.3 μM) |
| COc1ccc(F)c(CN2CCc3c(ncnc3NC(=O)CC34CC5CC(CC(C5)C3)C4)C2)c1 [Compound 104] | +++ (compound exhibited 50-75% inhibition at 0.3 μM) |
| O=C(CC12CC3CC(CC(C3)C1)C2)Nc1ncnc2c1CCN(Cc1ccc3c(c1)CCO3)C2 [Compound 105] | + (compound exhibited 0-25% inhibition at 0.3 μM) |
| O=C(CC12CC3CC(CC(C3)C1)C2)Nc1ncnc2c1CCN(Cc1ccc(F)c(C(F)(F)F)c1)C2 [Compound 106] | + (compound exhibited 0-25% inhibition at 0.3 μM) |
